Experimental data published in patent US20130225591A1, “IMIDOTHIAZOLE KINASE INHIBITORS” (priority 2009, published 2013).
pIC50: −log10 of the molar value. Where two headings read alike, the source gives them in different places.

Biological target: T1, CDK5-p25 kinase (Homo sapiens, UniProt Q00535)
T1 construct: purchased Invitrogen PV4677
Experiment: CDK5-p25 kinase enzymatic assay
Type: biochemical
Conditions: 5 uM ATP, 0.3 nM CDK5-p25
Summary of the method: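 Enzyme (0.3 nM) preincubated with compound 5–15 min at room temperature, then reacted 30 min with 1.5 uM FL29 histone H1-derived peptide and 5 uM ATP in 98 mM HEPES pH 7.5, 0.6 mM DTT, 1% DMSO. Phosphorylated product quantified by electrophoretic separation; IC50 from four-parameter fit.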

[1] = '<50 nM', read-out: IC50 potency, CDK5-p25 kinase enzymatic assay, <50 nM

T1 sequence (Q00535 whole entry): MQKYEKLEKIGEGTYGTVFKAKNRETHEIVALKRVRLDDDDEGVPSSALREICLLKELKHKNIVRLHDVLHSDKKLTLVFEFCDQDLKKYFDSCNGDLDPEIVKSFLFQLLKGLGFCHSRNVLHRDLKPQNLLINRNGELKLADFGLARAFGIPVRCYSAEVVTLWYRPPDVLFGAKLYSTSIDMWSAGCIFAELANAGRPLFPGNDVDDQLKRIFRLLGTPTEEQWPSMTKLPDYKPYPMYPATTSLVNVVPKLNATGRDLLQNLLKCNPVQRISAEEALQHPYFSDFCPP
T1 sequence (Q15078 99-307 partner limits assumed): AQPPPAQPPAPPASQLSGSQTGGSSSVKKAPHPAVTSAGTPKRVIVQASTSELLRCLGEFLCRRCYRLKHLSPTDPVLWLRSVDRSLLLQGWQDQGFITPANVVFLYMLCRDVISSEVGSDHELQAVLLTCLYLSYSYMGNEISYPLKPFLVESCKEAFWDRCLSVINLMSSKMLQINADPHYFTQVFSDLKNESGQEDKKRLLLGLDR

| pIC50 [1] | pIC50 (500 nM-3 μM, read-out: IC50 potency, CDK5-p25 kinase enzymatic assay, 500 nM-3 μM) | Structure (SMILES) |
| --- | --- | --- |
| > 7.30 |  | O=C(Cc1ccc2ccccc2c1)Nc1ncn2c(Br)csc12 [Example 83, N-(3-Bromoimidazo[5,1-b][1,3]thiazol-7-yl)-2-(naphthalen-2-yl)acetamide] |
|  | 5.52 to 6.30 | N#Cc1csc2c(NC(=O)Cc3ccc4ccccc4c3)ncn12 [Example 84, N-(3-cyanoimidazo[5,1-b][1,3]thiazol-7-yl)-2-(naphthalen-2-yl)acetamide] |
| > 7.30 |  | O=C(Cc1ccc2ccccc2c1)Nc1ncn2c(C(F)(F)F)c(C(=O)O)sc12 [Example 85, 7-[(Naphthalen-2-ylacetyl)amino]-3-(trifluoromethyl)imidazo[5,1-b][1,3]thiazole-2-carboxylic Acid] |
| > 7.30 |  | NC(=O)c1sc2c(NC(=O)Cc3ccc4ccccc4c3)ncn2c1C(F)(F)F [Example 86, 7-[(Naphthalen-2-ylacetyl)amino]-3-(trifluoromethyl)imidazo[5,1-b][1,3]thiazole-2-carboxyamide] |
